Four compounds from patent US20240287138A1, “CYCLIC PEPTIDES FOR INHIBITING TNF RECEPTOR 1 ACTIVITY” (Merck Sharp & Dohme LLC, priority 2023, published 2024) can be followed below.

Numbered stars: 1 amine (or outer) side, 2 acyl side, 3 side chain; on linkers, the order of the positions; unused ones are H or OH. Bridge positions count the residues as written; N and C are the ends. Square brackets hold non-standard residues; d marks the D form. Peptide text beside a SMILES is read from it. Trp(βS-Me,7-OMe) = COc1cccc2c([C@H](C)[C@H](N)C(=O)O)c[nH]c12; X44 = NC(=O)c1ccc([C@@H](O)[C@H](N[*:1])C(=O)[*:2])cc1; dPro(trans-4-NMe2) = CN(C)[C@@H]1CN[C@@H](C(=O)O)C1; Trp(7-CN) = N#Cc1cccc2c(C[C@H](N)C(=O)O)c[nH]c12; Trp(7-Cl) = N[C@@H](Cc1c[nH]c2c(Cl)cccc12)C(=O)O; Phe(4-CONH2) = NC(=O)c1ccc(C[C@H](N)C(=O)O)cc1; Phe(4-COOH) = N[C@@H](Cc1ccc(C(=O)O)cc1)C(=O)O; Trp(7-aza) = N[C@@H](Cc1c[nH]c2ncccc12)C(=O)O; Phe(4-CH2NH2) = NCc1ccc(C[C@H](N)C(=O)O)cc1; Pip(5R-OH) = O=C(O)[C@@H]1CC[C@@H](O)CN1; X1 = O=C([C@@H]1CC[C@H](N[*:1])C1)[*:2]; Pip(4-aza) = O=C(O)[C@@H]1CNCCN1; 4Pal = N[C@@H](Cc1ccncc1)C(=O)O; NMeE = CN[C@@H](CCC(=O)O)C(=O)O; αMeS = C[C@](N)(CO)C(=O)O; Nle = CCCC[C@H](N)C(=O)O; Nme = COCCNCC(=O)O; Sar = CNCC(=O)O

For assay [1], the target named is T1, human TNFR1 extracellular domain (ECD) protein (Homo sapiens, UniProt P19438).
T1 construct: HRV 3C protease cleavage site (C); 6His (C, cleaved yes); made in house; host or cells: Sf21 insect cells (baculovirus), secreted
T1 sequence (P19438 30-211): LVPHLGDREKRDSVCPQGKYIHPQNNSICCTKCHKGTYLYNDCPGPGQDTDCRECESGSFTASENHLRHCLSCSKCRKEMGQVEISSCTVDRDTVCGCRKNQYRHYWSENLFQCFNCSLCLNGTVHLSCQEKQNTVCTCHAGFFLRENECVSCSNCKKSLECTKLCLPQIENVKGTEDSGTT
The assay can be described thus: SPR binding affinity to captured human TNFR1 ECD. As to the method: (§1) B. Procedure for Binding Affinity and Selectivity measured by SPR
(§2) Affinity and selectivity for hTNFR1 and TNFR2 was determined using SPR. Human TNFR1 or TNFR2 genes (extracellular domain only) were synthesized with a C-terminal Avi-tag, HRV 3C protease cleavage site followed by a 6His-tag for affinity purification. The final gene product was cloned into pBAC™-1 vector (Millipore Sigma) for expression testing in insect cells. Constructs were transfected into Sf21 cells for baculovirus generation followed by protein expression analysis in Sf21 and Tni cell lines. Large scale expression in Sf21 cells was performed using baculovirus infected insect cells (BIICs) infected at a MOI=2.0 grown for 72 h. Target proteins secreted into the media were harvested via centrifugation and concentrated using diafiltration. TNFR was purified by immobilized metal ion affinity chromatography (IMAC) using a Ni-Sepharose HisTrap™ column (Cytiva™). Isolated TNFR had His tag removed using HRV 3C protease followed by additional purification using Ni-NTA chromatography. Biotinylation was performed on Ni-NTA flow-through fractions concentrated to 45 μM and treated with BirA ligase (1:100, μg/μg ratio) in 50 mM Tris pH 7.5, 150 mM NaCl, 50 μM biotin, 10 mM magnesium acetate, 10 mM ATP at 4° C. for 20 h. Final purification of biotin-TNFR and buffer exchange into 20 mM HEPES pH 7.5, 150 mM NaCl was performed using a HiLoad® Superdex® 200 26/60 column (Cytiva™). Highly purified protein was aliquoted and stored at −80° C.
(§3) The SPR assay uses a Cytiva™ 8K or 8K+ biosensor instrument to measure the kinetics of peptide analytes binding to captured human TNFR1 extracellular domain (ECD) protein; peptide analytes are also evaluated for any off-target binding to human TNFR2 ECD protein in parallel. Recombinant human TNFR1 ECD and human TNFR2 ECD proteins, biotinylated via engineered C-terminal avi-tags, are immobilized to a regenerable streptavidin biosensor chip surface (Cytiva™ Biotin CAPture kit, Series S; cat. #28920234). Peptide analytes binding to immobilized human TNFR1 ECD protein and their subsequent dissociation are conducted in a buffer of 10 mM HEPES pH 7.4, 150 mM NaCl, 3 mM EDTA, 0.05% P20,2% DMSO under laminar flow conditions and measured in response units (RU), which are directly proportional to the accumulated mass on the surface of the biosensor chip; the biosensor chip surface is regenerated via Cytiva™ proprietary methods between the evaluation of each peptide analyte. […] The SPR assay determines the association and dissociation rate constants, kon and koff, for each peptide analyte and, from these values, calculates the binding affinity, […] reported in Table 2.
For orientation: Surface plasmon resonance follows binding to a sensor surface in real time, without labels.

The target in the next assay is T2, human TNFR2 ECD protein (Homo sapiens, UniProt P20333).
T2 construct: HRV 3C protease cleavage site (C); 6His (C, cleaved yes); made in house; host or cells: Sf21 insect cells (baculovirus), secreted
T2 sequence (P20333 23-257): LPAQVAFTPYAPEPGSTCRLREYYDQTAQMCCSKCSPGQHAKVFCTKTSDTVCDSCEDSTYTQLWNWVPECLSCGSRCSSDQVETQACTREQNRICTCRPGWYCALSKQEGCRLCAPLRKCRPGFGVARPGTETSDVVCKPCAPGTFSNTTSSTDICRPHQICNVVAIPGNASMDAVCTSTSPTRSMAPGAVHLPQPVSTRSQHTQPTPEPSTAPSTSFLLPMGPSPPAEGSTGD
The experiment in a line: SPR off-target binding (selectivity) to human TNFR2 ECD. On the procedure: as §1, §2, §3

Assay [2] deals with T3, TNFα-induced NF-κB signal transduction pathway (TNFR1 signaling) in THP-1 cells (Homo sapiens, UniProt P19438).
T3 sequence (P19438 30-455): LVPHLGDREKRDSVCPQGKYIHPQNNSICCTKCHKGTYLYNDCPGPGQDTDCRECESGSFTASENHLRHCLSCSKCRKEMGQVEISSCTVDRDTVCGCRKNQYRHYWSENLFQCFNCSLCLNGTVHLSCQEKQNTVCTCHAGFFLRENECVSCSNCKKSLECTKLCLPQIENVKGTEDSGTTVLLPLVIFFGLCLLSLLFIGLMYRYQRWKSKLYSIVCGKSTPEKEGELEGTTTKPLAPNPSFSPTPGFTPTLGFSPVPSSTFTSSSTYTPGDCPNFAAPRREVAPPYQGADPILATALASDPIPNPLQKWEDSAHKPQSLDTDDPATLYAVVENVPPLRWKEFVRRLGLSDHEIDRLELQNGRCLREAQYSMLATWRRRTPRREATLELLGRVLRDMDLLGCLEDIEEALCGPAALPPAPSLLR
The experiment in a line: THP-1 Lucia NF-κB reporter cell assay, inhibition of TNFα-induced NF-κB signaling. It is filed as cell-based. The settings on record: THP-1 NF-κB Lucia reporter cells, 10 ng/mL TNFα, 16-18 h, secreted luciferase; read-out: THP-1 IC50. The gist of the method: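 Macrocyclic peptides were preincubated 1 h at 37 °C with THP-1 NF-κB-Lucia reporter cells (20,000 cells/well) in antibiotic-free RPMI 1640/10% FBS, then stimulated with 10 ng/mL human TNFα overnight (16-18 h). Secreted luciferase in supernatant was read by luminescence; IC50 from 4-parameter logistic fits.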

Assay [3] addresses T4, human soluble TNFR1 (sTNFR1) (Homo sapiens, UniProt P19438).
T4 construct: made in house; host or cells: Sf21 (baculovirus)
T4 sequence (P19438 with tags, fused parts or gaps): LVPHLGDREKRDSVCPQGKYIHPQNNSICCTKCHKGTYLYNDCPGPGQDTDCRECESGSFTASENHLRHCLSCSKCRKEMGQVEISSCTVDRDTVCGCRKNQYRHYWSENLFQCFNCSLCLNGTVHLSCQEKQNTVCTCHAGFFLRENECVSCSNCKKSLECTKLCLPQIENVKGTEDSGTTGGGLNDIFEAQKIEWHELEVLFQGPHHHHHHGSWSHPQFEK
The experiment in a line: Human sTNFR1-peptide displacement assay (LanthaScreen Eu TR-FRET binding assay). In outline:
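Readout is the 665/615 nm TR-FRET ratio (Eu anti-His donor, streptavidin-Alexa647 acceptor), normalized to DMSO and saturating displacer, fit by Morrison-based five-parameter logistic for Kd^app. His-tagged sTNFR1 (1-211) prebound to 100 nM biotinylated peptide SEQ ID NO.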
In general terms: Time-resolved FRET reads energy transfer from a long-lived donor to a nearby acceptor.

Usually Kd stands for the concentration at which binding is half-saturated. High values mean lower affinity, low ones higher affinity. For `CCCC[C@@H]1NC(=O)[C@@H]2CC[C@@H](C2)NC(=O)[C@H]([C@@H](C)c2c[nH]c3c(OC)cccc23)NC(=O)CN(C)C(=O)[C@H](Cc2ccc(O)cc2)NC(=O)[C@H](Cc2ccc(C(=O)O)cc2)NC(=O)[C@](C)(CO)NC(=O)[C@H](Cc2c[nH]c3c(Cl)cccc23)NC(=O)[C@H](Cc2ccncc2)NC(=O)[C@H](CC(N)=O)NC(=O)CN(CCOC)C(=O)[C@H](Cc2c[nH]c3ccccc23)NC(=O)[C@@H]2CNCCN2C(=O)[C@H](Cc2ccncc2)NC1=O` [SEQ ID NO. 82] (cyclo([4Pal][Trp(7-Cl)][αMeS][Phe(4-COOH)]Y[Sar][Trp(βS-Me,7-OMe)][X1][Nle][4Pal][Pip(4-aza)]W[Nme]N)), the Kd was 0.07 nM in assay [1] and > 1000 nM at human TNFR2 ECD protein.

Broadly, the IC50 is the concentration at which inhibition is half-maximal. Regarding `CCCC[C@@H]1NC(=O)CSC[C@@H](C(N)=O)NC(=O)[C@H]([C@@H](C)c2c[nH]c3c(OC)cccc23)NC(=O)CN(C)C(=O)[C@H](Cc2ccc(O)cc2)NC(=O)[C@H](Cc2ccc(C(=O)O)cc2)NC(=O)[C@](C)(CO)NC(=O)[C@H](Cc2c[nH]c3c(Cl)cccc23)NC(=O)[C@H](Cc2ccc(CN)cc2)NC(=O)[C@H](CC(N)=O)NC(=O)[C@H](CCC(=O)O)N(C)C(=O)[C@H](Cc2c[nH]c3ccccc23)NC(=O)[C@@H]2CC[C@@H](O)CN2C(=O)[C@H](Cc2ccncc2)NC1=O` [SEQ ID NO. 96] ({CH2CO}-[Nle][4Pal][Pip(5R-OH)]W[NMeE]N[Phe(4-CH2NH2)][Trp(7-Cl)][αMeS][Phe(4-COOH)]Y[Sar][Trp(βS-Me,7-OMe)]C-NH2; thioether N-14), the Kd on human TNFR2 ECD protein is > 1000 nM. For the same compound, the half-maximal inhibitory concentration (IC50) in assay [2] was 1.6 nM.

Take `CCCC[C@@H]1NC(=O)CSC[C@@H](C(N)=O)NC(=O)[C@H]([C@@H](C)c2c[nH]c3c(OC)cccc23)NC(=O)CN(C)C(=O)[C@H](Cc2ccc(C(N)=O)cc2)NC(=O)[C@H](Cc2ccc(C(=O)O)cc2)NC(=O)[C@](C)(CO)NC(=O)[C@H](Cc2c[nH]c3c(Cl)cccc23)NC(=O)[C@H](Cc2ccncc2)NC(=O)[C@H](CC(N)=O)NC(=O)[C@H](CCC(=O)O)N(C)C(=O)[C@H](Cc2c[nH]c3ccccc23)NC(=O)[C@@H]2CNCCN2C(=O)[C@H](Cc2ccncc2)NC1=O` [SEQ ID NO. 124] ({CH2CO}-[Nle][4Pal][Pip(4-aza)]W[NMeE]N[4Pal][Trp(7-Cl)][αMeS][Phe(4-COOH)][Phe(4-CONH2)][Sar][Trp(βS-Me,7-OMe)]C-NH2; thioether N-14): the Kd in assay [1] was 0.12 nM; on human TNFR2 ECD protein it was > 1000 nM.

In turn, `CCCC[C@@H]1NC(=O)[C@@H]2CC[C@@H](C2)NC(=O)[C@H]([C@@H](C)c2c[nH]c3c(OC)cccc23)NC(=O)CN(C)C(=O)[C@H]([C@H](O)c2ccc(C(N)=O)cc2)NC(=O)[C@H](Cc2ccc(C(=O)O)cc2)NC(=O)[C@](C)(CO)NC(=O)[C@H](Cc2c[nH]c3c(C#N)cccc23)NC(=O)[C@H](Cc2ccc(C(=O)O)cc2)NC(=O)[C@H](CC(N)=O)NC(=O)[C@H]2C[C@H](N(C)C)CN2C(=O)[C@H](Cc2c[nH]c3ncccc23)NC(=O)[C@@H]2CNCCN2C(=O)[C@H](Cc2ccncc2)NC1=O` [SEQ ID NO. 287] (cyclo([4Pal][Pip(4-aza)][Trp(7-aza)][dPro(trans-4-NMe2)]N[Phe(4-COOH)][Trp(7-CN)][αMeS][Phe(4-COOH)][X44][Sar][Trp(βS-Me,7-OMe)][X1][Nle])) had a dissociation constant (Kd) in assay [3] of 0.22 nM. Moreover, the IC50 in assay [2] stood at 1.7 nM.
